Read-outs that look alike come from different tables or passages of the source.
Columns and labels:
[1] = system: creatine kinase expression in Ad5-wt-hERα infected HAECT-1 cells; assay: ER/CK: creatine kinase expression in Ad5-wt-ER infected HAECT-1 cells; assay type: cell-based, human; details: for EC50: Homo sapiens; for ER/CK % Eff*: efficacy relative to the maximal stimulation observed with E2
Procedure: (§1) T-175 flasks of 100% confluent HAECT-1 cells (immortalized human aortic endothelial cells) were washed with 8 ml of HBSS (HEPES buffered saline solution) and infected for four hours with 6 ml of a 1:10 dilution of Ad5-wt-hERα virus (an adenovirus transfection vector that mediates CMV promoter driven expression of human ERα) in phenol red free Endothelial Cell Basal medium (Clonetics, San Diego Calif., Catalog # CC-3129) containing 0.25% bovine serum albumin (EBM-BSA). After four hours, cells were washed with EBM-BSA and incubated overnight in the same medium. Following overnight incubation, cells were washed with EBM-BSA and infected for 2 hours with 6 ml of a 1:10 dilution of Ad5-3×(NFκB).Luc virus (Adenovirus luciferase expression vector driven by 3 repeats of the MHC NFκb site 5′ to the thymidine kinase promoter) in EBM-BSA. After two hours, cells were washed and incubated at 34° C. for 1 hour. Cells were then washed, trypsinized, counted and resuspended in 95% FBS/5% dimethylsulfoxide at a concentration of 4×10^6 cells/ml, frozen as 1 or 5 ml aliquots in cryo-vials and stored at −150° C. Control (no ER infection) cells were processed as above without Ad5-wt-hERα virus infection.
(§2) ERα infected HAECT-1 cells or control cells were thawed, diluted 42× in warm EBM-BSA, plated into 96-well plates at 0.1 ml/well and incubated for 4 h at 34° C. Test compounds were added to the cells as 2× stocks in EBM-BSA containing 2 ng/ml IL-1β (R&D Systems) and plates were returned to the incubator (34° C.). After 15-20 h, 100 μl aliquots of media were removed from the cells and assayed for IL-6 content using a BioSource human IL-6 ELISA Kit. Cells were subsequently washed with 300 μl of Dulbecco's phosphate buffered saline and lysed in 50 μl of Cell Culture Lysis Reagent (Promega). Luciferase was determined on a Wallac Victor^2 Luminometer (Gaithersburg, Md.) using 10 μl of lysate and mixing with 100 μl of Promega Luciferase Assay reagent. Creatine kinase was determined from the rate of increase in A340 following addition of 100 μl of CK assay reagent (Sigma, cat. No 47-10) to the remainder of the cell lysate.
(§3) For IC50 and EC50 calculations, mean IL-6, luciferase or CK values versus log10 of the compound concentration were fitted to a four parameter logistic equation. The IC50/EC50 value, ‘Hill slope’, upper and lower limits of the curve were iteratively estimated.

[2] = system: NF-κB luciferase reporter in Ad5-wt-hERα infected HAECT-1 cells; assay: ER/NF-κB-luc: IL-1β induced NF-κB luciferase reporter in Ad5-wt-ER infected HAECT-1 cells; assay type: cell-based; details: Homo sapiens; for IC50: HAECT1, Ad5-wt-ER infected HAECT-1 cells, IL-1β, read-out: ER/NF-KB-luc IC50; for Emax: HAECT1, efficacy relative to the maximal inhibition observed with E2, read-out: ER/NF-KB-luc % Eff*
Procedure: as §1, §2, §3

[3] = system: IL-6 expression in Ad5-wt-hERα infected HAECT-1 cells; assay: ER/IL-6: IL-6 expression (ELISA) in Ad5-wt-ER infected HAECT-1 cells; assay type: cell-based, human; details: for IC50: IL-1β; for ER/IL-6 % Eff: efficacy relative to the maximal inhibition observed with E2
Procedure: as §1, §2, §3

[4] = system: MHC invariant chain mRNA; assay: NF-κB target gene expression in liver of mice fed a high fat diet: MHC; assay type: in vivo, C57BL/6 mice; details: 10 mg/kg
Procedure: (§4) Ovariectomized C57BL/6 mice (16-20 g) (Taconic) were separated into groups of 8. After 5-7 days of recuperation, the mice were fed a chow diet or an atherogenic diet (15.75% fat, 1.25% cholesterol and 0.5% sodium cholate) (Purina diet #21539). EE or test compound was administered once daily by gavage in a methylcellulose/tween vehicle (0.1 ml per mouse) for 5 weeks. At the end of the experimental period, the liver was collected and uterine wet weight was recorded.
(§5) Liver total RNA was prepared by using Trizol reagent (BRL). Estrogen and compound regulation of NF-κB target genes were verified by real time RT-PCR using an ABI PRISM 7700 Sequence Detection System according to the manufacturer's protocol (Applied Biosystems). The data was analyzed using the Sequence Detector v1.7 software (Applied Biosystems) and normalized to GAPDH using the Applied Biosystems primer set.
(§6) To determine the ability of estrogens to regulate the development of diet-induced inflammation in the liver, gene expression changes resulting from the atherogenic diet were monitored. Ovariectomized C57BL/6 mice were fed either a chow or atherogenic diet and treated daily with EE (0.01 mg/kg) or test compound (Table 2).

[5] = system: VCAM-1 mRNA; assay: NF-κB target gene expression in liver of mice fed a high fat diet: VCAM-1; assay type: in vivo, C57BL/6 mice; details: 10 mg/kg
Procedure: as §4, §5, §6

[6] = system: RANTES mRNA; assay: NF-κB target gene expression in liver of mice fed a high fat diet: RANTES; assay type: in vivo, C57BL/6 mice; details: 10 mg/kg
Procedure: as §4, §5, §6

[7] = system: TNF-α mRNA; assay: NF-κB target gene expression in liver of mice fed a high fat diet: TNFa; assay type: in vivo, C57BL/6 mice; details: 10 mg/kg
Procedure: as §4, §5, §6

[8] = Ad5-wt-ER infected HAECT-1 cells
[9] = HAECT1, read-out: ER/CK EC50 (nM)
[10] = Homo sapiens, HAECT1, Ad5-wt-ER infected HAECT-1 cells
[11] = once daily by gavage, 5 weeks, ovariectomized mice on atherogenic diet, liver RT-PCR

CC(C)n1nc(C(=O)c2cccc(O)c2)c2cccc(C(F)(F)F)c21 [Example 13, (3-hydroxyphenyl)[1-isopropyl-7-(trifluoromethyl)-1H-indazol-3-yl]methanone]
melting point: 145 °C | ER/CK EC50 (nM) [1, 8]: ia | IC50 [2]: 63 nM | Emax [2]: 85%

Oc1cccc(Cc2nn(C3CCCC3)c3ccccc23)c1 [Example 6, 3-[(1-cyclopentyl-1H-indazol-3-yl)methyl]phenol]
ER/CK EC50 (nM) [1, 8]: ia | IC50 [2]: 570 nM | Emax [2]: 54%

O=C(c1cccc(O)c1)c1nn(C2CCCC2)c2ccccc12 [Example 4, (1-cyclopentyl-1H-indazol-3-yl)(3-hydroxyphenyl)methanone]
EC50 [1, 9]: 1330 nM | ER/CK % Eff* [1]: 57% | IC50 [3, 10]: 66 nM | ER/IL-6 % Eff [3]: 109% | MHC % inhib [4, 11]: 60% | MHC (eff %) ([4]; value in parentheses): 138% | VCAM-1 % inhib [5, 11]: 59% | VCAM-1 (eff %) ([5]; value in parentheses): 100% | RANTES % inhib [6, 11]: 67% | RANTES (eff %) ([6]; value in parentheses): 151% | TNFa % inhib [7, 11]: 45% | TNFa (eff %) ([7]; value in parentheses): 100% | IC50 [2]: 170 nM | Emax [2]: 77%

C/C=C/Cn1nc(C(=O)c2cccc(O)c2)c2ccccc21
melting point: 75 to 78 °C

CC(C)Cn1nc(C(=O)c2cccc(O)c2)c2ccccc21 [Example 17, (3-hydroxyphenyl)(1-isobutyl-1H-indazol-3-yl)methanone]
melting point: 108 to 110 °C | EC50 [1, 9]: 1570 nM | ER/CK % Eff* [1]: 51% | IC50 [2]: 710 nM | Emax [2]: 100%

O=C(c1cccc(O)c1)c1c2ccccc2nn1-c1ccc(Br)cc1 [Example 23, [2-(4-bromophenyl)-2H-indazol-3-yl](3-hydroxyphenyl)methanone]
ER/CK EC50 (nM) [1, 8]: ia | IC50 [2]: 82 nM | Emax [2]: 79%

CC(C)n1nc(C(=O)c2ccc(O)cc2)c2cccc(C(F)(F)F)c21 [Example 9, (4-hydroxyphenyl)[1-isopropyl-7-(trifluoromethyl)-1H-indazol-3-yl]methanone]
ER/CK EC50 (nM) [1, 8]: ia | IC50 [2]: 107 nM | Emax [2]: 80%

CC(C)=CCn1nc(C(=O)c2cccc(O)c2)c2ccccc21
melting point: 92 to 94 °C

CC(C)n1nc(C(=O)c2cccc(O)c2)c2ccccc21 [Example 5, (3-hydroxyphenyl)(1-isopropyl-1H-indazol-3-yl)methanone]
EC50 [1, 9]: 1790 nM | ER/CK % Eff* [1]: 55% | IC50 [2]: 1070 nM | Emax [2]: 83%

O=C(c1cccc(O)c1)c1n[nH]c2c(C(F)(F)F)cccc12 [Example 10, (3-hydroxyphenyl)[7-(trifluoromethyl)-1H-indazol-3-yl]methanone]
ER/CK EC50 (nM) [1, 8]: ia | IC50 [2]: 593 nM | Emax [2]: 88%

C[C@]12CC[C@@H]3c4ccc(O)cc4CC[C@H]3[C@@H]1CC[C@@H]2O [Example E2, 17β-estradiol, reference compound]
EC50 ([1]; HAECT1, Ad5-wt-ER infected HAECT-1 cells, read-out: ER/CK EC50): 5.8 nM | ER/CK % Eff* [1]: 100% | IC50 [3, 8]: 1.7 nM | IC50 [3, 10]: ~1 nM | ER/IL-6 % Eff [3]: 100% | IC50 [2]: ~1 nM | Emax [2]: 100%

CCCn1nc(C(=O)c2cccc(O)c2)c2ccccc21 [Example 3, (3-hydroxyphenyl)(1-propyl-1H-indazol-3-yl)methanone]
EC50 [1, 9]: 2640 nM | ER/CK % Eff* [1]: 35% | IC50 [2]: 722 nM | Emax [2]: 70%

O=C(c1cccc(O)c1)c1nn(C2C=CCCC2)c2ccccc12 (centres unmarked) [Example 20, (1-cyclohex-2-en-1-yl-1H-indazol-3-yl)(3-hydroxyphenyl)methanone]
melting point: 140 to 141 °C | ER/CK EC50 (nM) [1, 8]: ia | IC50 [2]: 155 nM | Emax [2]: 87%

O=C(c1cccc(O)c1)c1nn(C2CCCC2)c2c(C(F)(F)F)cccc12 [Example 12, [1-cyclopentyl-7-(trifluoromethyl)-1H-indazol-3-yl](3-hydroxyphenyl)methanone]
melting point: 152 °C | EC50 [1, 9]: 139 nM | ER/CK % Eff* [1]: 32% | IC50 [2]: 54 nM | Emax [2]: 73%

O=C(c1ccc(O)cc1)c1n[nH]c2c(C(F)(F)F)cccc12 [Example 7, (4-hydroxyphenyl)[7-(trifluoromethyl)-1H-indazol-3-yl]methanone]
ER/CK EC50 (nM) [1, 8]: ia | IC50 [2]: 1000 nM | Emax [2]: 43%

CCCn1nc(C(=O)c2cccc(O)c2)c2cccc(C(F)(F)F)c21 [Example 11, (3-hydroxyphenyl)[1-propyl-7-(trifluoromethyl)-1H-indazol-3-yl]methanone]
melting point: 118 °C | ER/CK EC50 (nM) [1, 8]: ia | IC50 [2]: 198 nM | Emax [2]: 82%

C=CCn1nc(C(=O)c2cccc(O)c2)c2ccccc21 [Example 18, (1-allyl-1H-indazol-3-yl)(3-hydroxyphenyl)methanone]
ER/CK EC50 (nM) [1, 8]: ia | IC50 [2]: 1240 nM | Emax [2]: 92%

COc1cccc(-n2nc(C(=O)c3cccc(O)c3)c3ccccc32)c1 [Example 22, (3-hydroxyphenyl)[1-(3-methoxyphenyl)-1H-indazol-3-yl]methanone]
ER/CK EC50 (nM) [1, 8]: ia | IC50 [2]: 475 nM | Emax [2]: 75%

O=C(c1cccc(O)c1)c1nn(Cc2ccccc2)c2ccccc12 [Example 19, (1-benzyl-1H-indazol-3-yl)(3-hydroxyphenyl)methanone]
ER/CK EC50 (nM) [1, 8]: ia | IC50 [2]: 409 nM | Emax [2]: 92%

Oc1cccc(Cc2n[nH]c3ccccc23)c1 [Example 1, 3-[(1H-indazol-3-yl)methyl]phenol]
melting point: 170 to 172 °C

O=C(c1ccc(O)cc1)c1nn(C2CCCC2)c2c(C(F)(F)F)cccc12 [Example 8, [1-cyclopentyl-7-(trifluoromethyl)-1H-indazol-3-yl](4-hydroxyphenyl)methanone]
melting point: 225 to 226 °C | ER/CK EC50 (nM) [1, 8]: ia | IC50 [2]: 94 nM | Emax [2]: 87%

C=C(C)Cn1nc(C(=O)c2cccc(O)c2)c2ccccc21 [Example 14, (3-hydroxyphenyl)[1-(2-methylprop-2-enyl)-1H-indazol-3-yl]methanone]
melting point: 75 to 78 °C | ER/CK EC50 (nM) [1, 8]: ia | IC50 [2]: 388 nM | Emax [2]: 103%

Reference: US7598286B2, “[(1H-indazol-3-yl)methyl]phenols and (hydroxyphenyl)(1H-indazol-3-yl)methanones” (Wyeth, priority 2004, dated 2009)
